Results published in PubChem BioAssay AID1963829 (Molecular Pharmacology Branch, DTP, NCI, 2024).
Values joined by “and” are separate entries in the source; they are usually repeats but may differ in a detail not shown here. Equal values may be shown once.

System: 935938-334-R-J1-PDC complex spheroid viability
Experiment: Anticancer human tumor 935938-334-R-J1-PDC patient-derived small intestine adenocarcinoma cell line growth inhibition [POLQ]
Conditions: for viability, T/C: stronger effect = lower value
Protocol: Multicellular complex tumor spheroid response to Polymerase (POL) inhibitors (novobiocin, ART-558, RP6685) in combination with a variety of drugs and investigational agents in selected tumor cell lines
The POL inhibitors (novobiocin, ART-558, and RP6685) were evaluated both individually and in combination with standard of care and investigational anticancer small molecules within a complex spheroid model of solid tumors. . Complex spheroids include a stromal component modeled by human endothelial cells (HUVEC) and fibroblasts modeled by human mesenchymal stem cells (MSCs). The concentration ranges selected for each drug and investigational agent were based upon clinically achievable concentrations if the clinical Cmax of the agent was known.
Compounds. The drugs and investigational agents: novobiocin (NSC847541), ART-558 (NSC835418), RP-6685 (NSC848927), peposertib (NSC802822), ceralasertib (NSC780249), elimusertib (NSC800525), camonsertib (NSC841442), AZD-1390 (NSC803789), olaparib (NSC753686), talazoparib (NSC767125), rucaparib (NSC756644), sotorasib (NSC818433), MRTX-1133 (NSC836407), SN-38 (NSC673596), topotecan (NSC609699), epotoside (NSC141540), doxorubicin (NSC123127), gemcitabine (NSC613327), 5-fluorouracil (NSC19893), paclitaxel (NSC125973), vemurafenib (NSC761431), MSA-2 (NSC828583), SN-011 (NSC837082), adavosertib (NSC754352), prexasertib (NSC758257), carboplatin (NSC241240) and oxaliplatin (NSC266046), were obtained from the National Cancer Institute (NCI) Developmental Therapeutics Program Chemical Repository (21). The FDA-approved anticancer drug set is available from the Developmental Therapeutics Program at https://dtp.cancer.gov/organization/dscb/obtaining/. […] The stock solutions were prepared in dimethyl sulfoxide (DMSO, Sigma-Aldrich, St. Louis, MO, cat. D2650), except for the platinum compounds which were prepared in saline (Quality Biological, Gaithersburg, MD, cat. 114-055-101), at 800-fold the tested concentration and stored at -70 degrees C prior to their use. All drugs and investigational agents were tested over a range starting from a high concentration at or near the clinical Cmax and decreasing in half-log increments. If the clinical Cmax for an agent had not been determined, the highest concentration tested was 10 microM, except for SN-38, which was tested at a high concentration of 1 microM.
Cell Culture. All cells were maintained in an incubator at 37 degrees C and 5% CO2 with 95% humidity. The PDC lines were cultured according to standard operating procedures established by the NCI PDMR (https://pdmr.cancer.gov). Table 3 of the manuscript, lists the cell lines along with the number of the three cell types plated to form the mct-spheroids and media for tumor cell growth. After thawing, all PDC lines, except 997537-175-T-J1-PDC and 415267-285-R-J2-PDC, were cultured in Matrigel-coated flasks prepared with a working solution of 1X Ham's F-12 nutrient mix, without supplementation (Thermo Fisher Scientific, cat. 11765054), 100 U/mL penicillin-streptomycin (Thermo Fisher Scientific, cat. 15140122), and 2.5% Matrigel (Corning Inc., Corning, NY, cat. 354248) for the first three passages. The two PDC lines 997537-175-T-J1-PDC and 415267-285-R-J2-PDC were cultured on uncoated flasks. The 857933-349-R-J2-PDC line was cultured in 6C/Colon 1B media containing advanced DMEM/F-12 (Thermo Fisher Scientific, cat. 12634028), 10 mM HEPES (Thermo Fisher Scientific, cat. 15630080), 1X GlutaMAX supplement (Thermo Fisher Scientific, cat. 35050061), 0.1 mg/mL primocin (InvivoGen, San Diego, CA, cat. ant-pm-2), 10% defined fetal bovine serum, heat inactivated (HyClone Laboratories Inc., Logan, UT, cat. SH30070.03HI), 50% L-WRN conditioned media (ATCC, cat. CRL-3276), 1.25 mM N-Acetyl-L-cysteine (Sigma-Aldrich, cat. A9165), 10 mM nicotinamide (Sigma-Aldrich, cat. N0636), 1X B-27 supplement (Thermo Fisher Scientific, cat. 17504044), 1X N-2 supplement (Thermo Fisher Scientific, cat. […]
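Further: spheroids exposed to drugs for seven days before viability read.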
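Wherever viability, T/C is given: 100% = DMSO vehicle control wells.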

**Q.** Which viability, T/C (compound 0.000316 µM) does the source give for `Cn1ncnc1[C@H]1c2n[nH]c(=O)c3cc(F)cc(c23)N[C@@H]1c1ccc(F)cc1` here?
**A.** 87.9% and 80.8% and 110%

**Q.** And the viability, T/C (compound 0.001 µM)?
**A.** 83.2% and 90.4% and 112%

**Q.** And the viability, T/C (compound 0.00316 µM)?
**A.** 82.5% and 83.7% and 85.8%

**Q.** What about the viability, T/C (compound 0.01 µM) of the same compound?
**A.** 93.8% and 99.9% and 105%

**Q.** What about the viability, T/C (compound 0.0316 µM) of the same compound?
**A.** 113% and 94.7% and 116%

**Q.** And the viability, T/C (compound 0.1 µM)?
**A.** 99.4% and 96.1% and 76.1%

**Q.** What about the IC50 (curve of compound) of the same compound?
**A.** > 100 nM

**Q.** Which IC50 (curve of first compound, second compound 0.0316 µM) does the source give for `Cn1ncnc1[C@H]1c2n[nH]c(=O)c3cc(F)cc(c23)N[C@@H]1c1ccc(F)cc1` + COC1C(OC(N)=O)C(O)C(Oc2ccc3c(O)c(NC(=O)c4ccc(O)c(CC=C(C)C)c4)c(=O)oc3c2C)OC1(C)C here?
**A.** > 100 nM

**Q.** What about the IC50 (curve of first compound, second compound 0.1 µM) of the same compound?
**A.** > 100 nM

**Q.** And the IC50 (curve of first compound, second compound 0.316 µM)?
**A.** > 100 nM

**Q.** And the IC50 (curve of first compound, second compound 1 µM)?
**A.** > 100 nM

**Q.** What about the IC50 (curve of first compound, second compound 3.16 µM) of the same compound?
**A.** > 100 nM

**Q.** And the IC50 (curve of first compound, second compound 10 µM)?
**A.** > 100 nM

**Q.** What about the viability, T/C (second compound 0.0316 µM, first compound 0.000316 µM) of the same compound?
**A.** 101%

**Q.** And the viability, T/C (second compound 0.0316 µM, first compound 0.001 µM)?
**A.** 106%

**Q.** And the viability, T/C (second compound 0.0316 µM, first compound 0.00316 µM)?
**A.** 85.8%

**Q.** What about the viability, T/C (second compound 0.0316 µM, first compound 0.01 µM) of the same compound?
**A.** 83.9%

**Q.** What about the viability, T/C (second compound 0.0316 µM, first compound 0.0316 µM) of the same compound?
**A.** 92.9%

**Q.** What about the viability, T/C (second compound 0.0316 µM, first compound 0.1 µM) of the same compound?
**A.** 83.2%

**Q.** What about the viability, T/C (second compound 0.1 µM, first compound 0.000316 µM) of the same compound?
**A.** 96.5%

**Q.** And the viability, T/C (second compound 0.1 µM, first compound 0.001 µM)?
**A.** 113%

**Q.** What about the viability, T/C (second compound 0.1 µM, first compound 0.00316 µM) of the same compound?
**A.** 103%

**Q.** What about the viability, T/C (second compound 0.1 µM, first compound 0.01 µM) of the same compound?
**A.** 89.8%

**Q.** What about the viability, T/C (second compound 0.1 µM, first compound 0.0316 µM) of the same compound?
**A.** 88.5%

**Q.** And the viability, T/C (second compound 0.1 µM, first compound 0.1 µM)?
**A.** 83.5%

**Q.** And the viability, T/C (second compound 0.316 µM, first compound 0.000316 µM)?
**A.** 94.7%

**Q.** And the viability, T/C (second compound 0.316 µM, first compound 0.001 µM)?
**A.** 73.8%

**Q.** What about the viability, T/C (second compound 0.316 µM, first compound 0.00316 µM) of the same compound?
**A.** 97.6%

**Q.** What about the viability, T/C (second compound 0.316 µM, first compound 0.01 µM) of the same compound?
**A.** 115%

**Q.** And the viability, T/C (second compound 0.316 µM, first compound 0.0316 µM)?
**A.** 103%

**Q.** What about the viability, T/C (second compound 0.316 µM, first compound 0.1 µM) of the same compound?
**A.** 89.5%

**Q.** What about the viability, T/C (second compound 1 µM, first compound 0.000316 µM) of the same compound?
**A.** 84%

**Q.** What about the viability, T/C (second compound 1 µM, first compound 0.001 µM) of the same compound?
**A.** 105%

**Q.** And the viability, T/C (second compound 1 µM, first compound 0.00316 µM)?
**A.** 121%

**Q.** And the viability, T/C (second compound 1 µM, first compound 0.01 µM)?
**A.** 94.8%

**Q.** And the viability, T/C (second compound 1 µM, first compound 0.0316 µM)?
**A.** 90.8%

**Q.** What about the viability, T/C (second compound 1 µM, first compound 0.1 µM) of the same compound?
**A.** 70.6%

**Q.** And the viability, T/C (second compound 3.16 µM, first compound 0.000316 µM)?
**A.** 101%

**Q.** And the viability, T/C (second compound 3.16 µM, first compound 0.001 µM)?
**A.** 102%

**Q.** What about the viability, T/C (second compound 3.16 µM, first compound 0.00316 µM) of the same compound?
**A.** 84.3%

**Q.** And the viability, T/C (second compound 3.16 µM, first compound 0.01 µM)?
**A.** 84.6%

**Q.** And the viability, T/C (second compound 3.16 µM, first compound 0.0316 µM)?
**A.** 61.7%

**Q.** What about the viability, T/C (second compound 3.16 µM, first compound 0.1 µM) of the same compound?
**A.** 90%

**Q.** What about the viability, T/C (second compound 10 µM, first compound 0.000316 µM) of the same compound?
**A.** 128%

**Q.** And the viability, T/C (second compound 10 µM, first compound 0.001 µM)?
**A.** 92.7%

**Q.** What about the viability, T/C (second compound 10 µM, first compound 0.00316 µM) of the same compound?
**A.** 85.4%

**Q.** And the viability, T/C (second compound 10 µM, first compound 0.01 µM)?
**A.** 105%

**Q.** And the viability, T/C (second compound 10 µM, first compound 0.0316 µM)?
**A.** 78.7%

**Q.** And the viability, T/C (second compound 10 µM, first compound 0.1 µM)?
**A.** 95.8%

**Q.** Which viability, T/C (compound 0.0316 µM) does the source give for `COc1cccc2c1C(=O)c1c(O)c3c(c(O)c1C2=O)CC(O)(C(=O)CO)CC3OC1CC(N)C(O)C(C)O1` (stereo not given) here?
**A.** 68.8% and 69.1% and 56.6%

**Q.** And the viability, T/C (compound 0.1 µM)?
**A.** 39.8% and 38.5% and 102%

**Q.** What about the viability, T/C (compound 0.316 µM) of the same compound?
**A.** 25.9% and 33.7% and 25.3%

**Q.** What about the viability, T/C (compound 1 µM) of the same compound?
**A.** 23.2% and 22.7% and 24.1%

**Q.** And the viability, T/C (compound 3.16 µM)?
**A.** 7.61% and 6.31% and 3.97%

**Q.** What about the viability, T/C (compound 10 µM) of the same compound?
**A.** 6.95% and 3.94% and 4.69%

**Q.** And the IC50 (curve of compound)?
**A.** 70.7 nM and 79.2 nM and 187 nM

**Q.** With `COc1cc2cc(C(=O)CCC(=O)O)sc2cc1OC` as the compound, how does the viability, T/C (compound 0.0316 µM) read?
**A.** 106% and 94.9% and 129%

**Q.** What about the viability, T/C (compound 0.1 µM) of the same compound?
**A.** 67.4% and 98.4% and 94.5%

**Q.** What about the viability, T/C (compound 0.316 µM) of the same compound?
**A.** 126% and 89.9% and 95.3%

**Q.** And the viability, T/C (compound 1 µM)?
**A.** 100% and 99.5% and 86.7%

**Q.** What about the viability, T/C (compound 3.16 µM) of the same compound?
**A.** 84.1% and 107% and 110%

**Q.** What about the viability, T/C (compound 10 µM) of the same compound?
**A.** 67.2% and 78.6% and 93.8%

**Q.** And the IC50 (curve of compound)?
**A.** > 10000 nM

**Q.** `C#Cc1c(F)ccc2cc(O)cc(-c3ncc4c(N5CC6CCC(C5)N6)nc(OCC56CCCN5CC(F)C6)nc4c3F)c12` (stereo not given) was tested. Which viability, T/C (compound 0.0316 µM) did it give?
**A.** 94.5% and 100% and 95%

**Q.** And the viability, T/C (compound 0.1 µM)?
**A.** 109% and 87.3% and 101%

**Q.** And the viability, T/C (compound 0.316 µM)?
**A.** 78.4% and 86.1% and 85.4%

**Q.** What about the viability, T/C (compound 1 µM) of the same compound?
**A.** 59.5% and 69% and 70.2%

**Q.** What about the viability, T/C (compound 3.16 µM) of the same compound?
**A.** 64.2% and 46.4% and 44%

**Q.** And the viability, T/C (compound 10 µM)?
**A.** 28.9% and 34.7% and 36.1%

**Q.** And the IC50 (curve of compound)?
**A.** 3790 nM and 2850 nM and 2510 nM
